Experimental data from US20260347843A1, “NERVOUS SYSTEM DELIVERY ENHANCER” (priority 2022, published 2026).

Columns and labels:
[1] = ASO concentration in mouse nervous tissue after intraventricular administration (quantitative RT-PCR relative to U6 snRNA); assay type: in vivo
Method: Seven-week-old female ICR mice anesthetized with 2.5 to 4% isoflurane were fixed to a brain stereotaxic apparatus. Then, skin between the ears was cut open 2 to 3 cm anteroposteriorly, and perforated 1 mm leftward and 0.2 mm posteriorly from the bregma using a 1 mm diameter drill. A Hamilton syringe was filled with the nucleic acid agent. Through the perforated site, a needle was inserted approximately 3 mm deep. The ASO at a dose of 0.95 nmol (5 μg) per mouse was administered into the left lateral ventricle (n=4 to 7/group). The group to which ASO and TGN-073 were coadministered (hereinafter, the group is referred to as the “ASO/TGN-073 coadministration group”) means that ASO mixed with TGN-073 was administered. The group to which only ASO was administered (hereinafter, the group is referred to as the “ASO single administration group”) means that only ASO was administered without being mixed with TGN-073. The dose of TGN-073 in the ASO/TGN-073 coadministration group was 0.25 mg per mouse. After the intraventricular administration, the skin was sutured with a nylon thread. In addition, mice to which only TGN-073 was administered (hereinafter, the mice are referred to as the “TGN-073 administration group”) and mice to which only PBS was administered (hereinafter, the mice are referred to as the “PBS administration group”) were produced as controls.
A left hippocampus was extirpated from each of the mice at 3 hours or 7 days after the intraventricular administration. Using an IsogenI kit (GeneDesign Inc.), RNA was extracted from the left hippocampus extirpated. A cDNA was synthesized using Transcriptor Universal cDNA Master, DNase (Roche Diagnostics) in accordance with the protocol.
The intracerebral ASO concentration (the amount of the nucleic acid delivered to the brain) was measured by extracting RNA from the left hippocampus extirpated in the same manner as described above, and performing quantitative RT-PCR using a primer pair for amplifying ASO and TaqMan Small RNA Assay (Roche Applied Science). The intracerebral ASO concentration was obtained by calculating the ASO content relative to U6 snRNA (an internal standard gene). […]

[2] = Evaluation of motor function in an open-field test; assay type: in vivo, mouse; details: coadministered with Mapt-targeting ASO (50 μg); 1 hour after intraventricular administration
Method: On the ASO described in Table 2, the preparation of the nucleic acid, an in vivo experiment, and the evaluation of the target gene suppression effect were performed by the same methods as in Example 1. In this Example, however, the dose of the nucleic acid agent per mouse was 9.4 nmol (50 μg).
By the below-described methods, evaluation of central nervous system toxicity and evaluation of motor function were performed on mice after intraventricular administration.
To evaluate the motor function, an open-field test was performed at each point of time after the intraventricular administration. Specifically, a mouse was placed in the center of a cage (50 cm in width×50 cm in […]×40 cm in height), and the track of the mouse was recorded for 5 minutes. On the basis of the data recorded, the total maximum moving speed (m/s) and the moving time(s) were measured using the video tracking software (ANY-maze).

[3] = system: exon 23/intron 23 of dystrophin pre-mRNA; test: Exon 23 skipping efficiency in the brain after intraventricular administration; assay type: in vivo, mouse; details: TGN-073 250 μg, hippocampus, striatum, cortex (any site), 7 days
Method: The mouse used was a 6-week-old male C57BL/6J mouse having a body weight of 20 g. In the following Examples, all the experiments performed using a mouse were based on n=3. PMO (the PMO single administration group) at 2.5 nmol or 2.5 nmol PMO with 250 μg of TGN-073 added thereto (the PMO/TGN-073 coadministration group) was administered in an amount of 10 μL to the left cerebral ventricle of a mouse.
At 1 week after the intraventricular administration, the mouse was dissected, and the hippocampus, striatum, and cortex (occipital lobe) were extirpated. Subsequently, mRNA was extracted from each tissue, using Isogen II. On the total RNA (900 ng) extracted, One-Step RT-PCR was performed using Qiagen One Step RT-PCR Kit (manufactured by Qiagen N.V.). A reaction solution was prepared in accordance with the protocol attached to the Kit. […]
A reaction product of the above-described RT-PCR, in an amount of 1 μL, was analyzed using Bioanalyzer 2100 (manufactured by Agilent Technologies, Inc.), and using an Agilent DNA1000 kit. The number “A” of moles of the nucleotide of the band skipped by exon 23 and the number “B” of moles of the nucleotide of the band not skipped by exon 23 were measured. On the basis of the measurement values of these “A” and “B”, the skipping efficiency was determined in accordance with the following formula: skipping efficiency (%)=A/(A+B)×100. […]

For `O=S(=O)(Nc1ncccc1OCc1ccccc1)c1ccccc1` [TGN-073, N-(3-benzyloxypyridin-2-yl)-benzene-sulfonamide], the “ASO concentration in the central nervous system (hippocampus) vs ASO single administration” value ([1]; Example 7, coadministered with Mapt-targeting ASO of Table 6 (9.4 nmol, 50 μg), TGN-073-mes 0.125 mg/mouse per method, 7 days) was “marked enhancement”, the “ASO concentration in the central nervous system (hippocampus) vs nucleic acid agent alone” value (“ASO concentration … vs nucleic acid agent alone” below) ([1]; coadministered with ASO (single-stranded, 0.95 nmol), 7 days) was “dramatic increase” and the “ASO concentration … vs nucleic acid agent alone” value ([1]; coadministered with Chol-HDO (0.95 nmol), 7 days) was “dramatic increase”. For the same compound, the “ASO concentration … vs nucleic acid agent alone” value ([1]; coadministered with HDO (0.95 nmol), 7 days) was “dramatic increase”, the “ASO concentration in the hippocampus (amount of nucleic acid delivered to the brain) vs ASO single administration” value ([1]; coadministered with Malat1-targeting ASO (0.95 nmol, 5 μg), TGN-073 0.25 mg per mouse, 3 hours or 7 days) was “dramatic increase” and the “ASO concentration in the lumbar cord portion vs ASO single administration” value ([1]; coadministered with Malat1-targeting ASO (1.7 nmol, 12.5 μg), 7 days) was “dramatic increase”. For the same compound, the “Maximum moving speed in open-field test vs ASO single administration” value [2] was “substantially the same maximum moving speed”, the “Moving time in open-field test vs ASO single administration” value [2] was “the same moving time” and the “Exon 23 skipping efficiency vs Chol-HDO (PMO) single administration” value ([3]; coadministered with Chol-HDO (PMO) (2.5 nmol)) was “noticeable increase”. The “Exon 23 skipping efficiency vs PMO single administration” value ([3]; coadministered with PMO (2.5 nmol)) was “noticeable increase”.
